Earlier results as cited in US8492366B2, “Enhancedly-solubilized beta-hydroxy acids and higher potency skin peels formulated therefrom” (Societe L'Oreal S.A., priority 2002, dated 2013).

maximum solubility in alcohol: ~29%
SMILES: O=C(O)c1ccccc1O [salicylic acid, 2-hydroxybenzoic acid]
